According to patent US4954485A, “2',3'-dideoxy-4-thio-uridine derivatives, process for their preparation and antivirus agents using them” (priority 1987, dated 1990):
Where two headings read alike, the source gives them in different places.

What was measured:
Format in all cases: cell-based
[1] = test system: Moloney-murine leukemia virus; assay: Antivirus effect on Moloney-murine leukemia virus in SC-1 cells (method of Rowe et al), Table 1
Text: (§1) The antivirus effect of the compound of general formula [II']of the invention was ascertained according to the test method by Rowe et al (J. W. Virology 1970, 42, 1136).
(§2) Virus: Moloney-murine leukemia virus.

[2] = test system: Rous sarcoma virus (RSV); assay: Effect on Rous sarcoma virus (RSV): inhibition of transformation of chick embryo fibroblast, Table 2; settings: 4TO7, RSV infected about 30 minutes, judged under microscope after 4 to 7 days, concentration at which transformation was inhibited, read-out: Antivirus effect (on RSV), Concentration
Procedure: EXAMPLE 2. EFFECT ON ROUS SARCOMA VIRUS (RSV) Employing cultured cells of the first generation (chick embryo fibroblast),RSV was infected for about 30 minutes. To this were added the samples diluted stepwise, and, after 4 to 7 days, which stage the transformation of cells due to RSV infection was inhibited at was judged under microscope.

[3] = test system: HIV (human immunodeficiency virus); assay: Effect on HIV: inhibition of transformation of MT-4 cells due to HIV infection, Table 3; settings: Human immunodeficiency virus 1, MT4, 72 h, HIV infected 1 hour at 37° C, judged under microscope after 3 days, concentration at which transformation was inhibited, read-out: Antivirus effect (on HIV), Concentration
Procedure: EFFECT ON HIV (HUMAN IMMUNODEFICIENCY VIRUS)
(§3) Employing MT-4 cells, HIV was infected for 1 hour at 37° C. To this were added the samples diluted stepwise, and, after 3 days, which stage the transformation of cells due to HIV infection was inhibited at was judged under microscope.

[4] = test system: Moloney-murine leukemia virus, RSV, HIV; assay: Antivirus effect, summary of Table 1 through 3; settings: as shown in Table 1 through 3
Procedure: as §1, §2
Employing cultured cells of the first generation (chick embryo fibroblast),RSV was infected for about 30 minutes. To this were added the samples diluted stepwise, and, after 4 to 7 days, which stage the transformation of cells due to RSV infection was inhibited at was judged under microscope.
as §3

[5] = Moloney-murine leukemia virus, SC-1 cells, read-out: ED50 (the source's name)

| EC50 [1, 5] [µM] | Compound | minimal effective concentration [2] [µg/mL] | minimal effective concentration [3] [µg/mL] | antivirus effect compared with DDC [4] | EC50 ([1]; SC-1, read-out: ED50) [µM] |
| --- | --- | --- | --- | --- | --- |
| 4 | Nc1ccn([C@H]2CC[C@@H](CO)O2)c(=O)n1 [DDC, 2',3Dideoxy-cytidine] | 0.5 to 1 | 1 |  |  |
| 3.7 | O=c1[nH]c(=S)ccn1[C@H]1CC[C@@H](CO)O1 [Compound of invention, 2',3'-dideoxy-4-thio-uridine] | 5 to 10 | 10 | excellent antivirus effect similar to that of DDC |  |
|  | Cc1cn([C@H]2C[C@H](N=[N+]=[N-])[C@@H](CO)O2)c(=O)[nH]c1=O [AZT, 3Azido-3deoxy-thymidine] |  |  |  | 0.02 |
